Blank lines part the entries; values can stand above or below the compound they belong to.
Experiments:
Experiment in all cases: KINOMEscan competition binding
Settings in all cases: compound 10.0 µM
IKBKB (human) = IKBKB (human) (UniProt O14920)
MARK3 (human) = MARK3 (human) (UniProt P27448)
NUAK2 (human) = NUAK2 (human) (UniProt Q9H093)
MAPK9 (human) = MAPK9 (human) (UniProt P45984)
CSNK1A1L (human) = CSNK1A1L (human) (UniProt Q8N752)
STK32C (human) = STK32C (human) (UniProt Q86UX6)
[1] = test system: FGFR3 (human), P22607 [G697C]
LIMK2 (human) = LIMK2 (human) (UniProt P53671)
IGF1R (human) = IGF1R (human) (UniProt P08069)
MAP4K5 (human) = MAP4K5 (human) (UniProt Q9Y4K4)
CDC2L2 (human) = CDC2L2 (human) (UniProt Q9UQ88)
MAP2K2 (human) = MAP2K2 (human) (UniProt P36507)
CAMK4 (human) = CAMK4 (human) (UniProt Q16566)
PTK2 (human) = PTK2 (human) (UniProt Q05397)
RPS6KA1 KD1 (human) = RPS6KA1 KD1 (human) (UniProt Q15418)
MERTK (human) = MERTK (human) (UniProt Q12866)
TEK (human) = TEK (human) (UniProt Q02763)
TSSK1B (human) = TSSK1B (human) (UniProt Q9BXA7)
Chain of TSSK1B (human) (Q9BXA7 whole entry, looked up): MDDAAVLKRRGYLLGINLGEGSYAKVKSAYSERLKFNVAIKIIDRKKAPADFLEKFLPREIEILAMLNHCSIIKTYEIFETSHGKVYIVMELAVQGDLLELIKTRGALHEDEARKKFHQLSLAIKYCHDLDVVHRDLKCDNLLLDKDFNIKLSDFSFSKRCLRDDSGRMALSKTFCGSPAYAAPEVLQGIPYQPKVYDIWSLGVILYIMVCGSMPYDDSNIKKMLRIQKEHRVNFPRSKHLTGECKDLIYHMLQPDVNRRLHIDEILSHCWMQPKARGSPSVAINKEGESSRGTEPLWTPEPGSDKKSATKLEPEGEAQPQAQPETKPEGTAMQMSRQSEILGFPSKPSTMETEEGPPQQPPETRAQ

CAMK1G (human) = CAMK1G (human) (UniProt Q96NX5)
CDK9 (human) = CDK9 (human) (UniProt P50750)
MUSK (human) = MUSK (human) (UniProt O15146)
TLK2 (human) = TLK2 (human) (UniProt Q86UE8)
RPS6KA4 KD1 (human) = RPS6KA4 KD1 (human) (UniProt O75676)
MAPK12 (human) = MAPK12 (human) (UniProt P53778)
Chain of MAPK12 (human) (P53778 whole entry, looked up): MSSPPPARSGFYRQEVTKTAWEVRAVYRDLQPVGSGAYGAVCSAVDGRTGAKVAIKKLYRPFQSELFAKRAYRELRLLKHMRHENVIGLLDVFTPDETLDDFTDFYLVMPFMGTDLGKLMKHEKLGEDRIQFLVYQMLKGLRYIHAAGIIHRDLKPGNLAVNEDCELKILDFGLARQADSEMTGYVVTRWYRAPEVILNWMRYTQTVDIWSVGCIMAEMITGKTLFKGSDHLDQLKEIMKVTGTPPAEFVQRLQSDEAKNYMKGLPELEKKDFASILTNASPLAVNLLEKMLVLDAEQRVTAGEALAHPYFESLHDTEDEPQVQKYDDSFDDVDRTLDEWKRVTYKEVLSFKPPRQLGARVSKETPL

CDC42BPB (human) = CDC42BPB (human) (UniProt Q9Y5S2)
SIK2 (human) = SIK2 (human) (UniProt Q9H0K1)
MAPK6 (human) = MAPK6 (human) (UniProt Q16659)
Chain of MAPK6 (human) (Q16659 whole entry, looked up): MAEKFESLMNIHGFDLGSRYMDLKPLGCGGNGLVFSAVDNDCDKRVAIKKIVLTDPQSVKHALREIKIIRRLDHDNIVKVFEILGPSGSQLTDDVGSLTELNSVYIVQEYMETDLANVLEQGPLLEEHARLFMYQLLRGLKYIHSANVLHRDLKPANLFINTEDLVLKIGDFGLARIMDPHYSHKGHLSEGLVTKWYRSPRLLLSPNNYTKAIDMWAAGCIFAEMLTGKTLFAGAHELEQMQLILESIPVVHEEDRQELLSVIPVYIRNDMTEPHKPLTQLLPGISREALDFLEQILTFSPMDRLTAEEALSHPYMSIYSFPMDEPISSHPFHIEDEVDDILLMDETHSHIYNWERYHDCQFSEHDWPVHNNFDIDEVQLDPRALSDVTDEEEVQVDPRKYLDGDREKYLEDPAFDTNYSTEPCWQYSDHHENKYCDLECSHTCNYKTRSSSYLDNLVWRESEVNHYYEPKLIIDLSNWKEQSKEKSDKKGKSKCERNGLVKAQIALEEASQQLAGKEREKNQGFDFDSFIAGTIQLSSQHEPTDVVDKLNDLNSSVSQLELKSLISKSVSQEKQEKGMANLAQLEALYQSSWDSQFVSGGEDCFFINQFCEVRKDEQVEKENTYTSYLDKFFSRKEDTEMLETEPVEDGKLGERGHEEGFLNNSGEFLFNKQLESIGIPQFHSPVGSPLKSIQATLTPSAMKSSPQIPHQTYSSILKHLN

TEC (human) = TEC (human) (UniProt P42680)
PIK3C2B (human) = PIK3C2B (human) (UniProt O00750)
RAF1 (human) = RAF1 (human) (UniProt P04049)
[2] = test system: EGFR (human), P00533 [A750P; 747-749 del]
MARK2 (human) = MARK2 (human) (UniProt Q7KZI7)
NEK5 (human) = NEK5 (human) (UniProt Q6P3R8)
INSRR (human) = INSRR (human) (UniProt P14616)
Chain of INSRR (human) (P14616 whole entry, looked up): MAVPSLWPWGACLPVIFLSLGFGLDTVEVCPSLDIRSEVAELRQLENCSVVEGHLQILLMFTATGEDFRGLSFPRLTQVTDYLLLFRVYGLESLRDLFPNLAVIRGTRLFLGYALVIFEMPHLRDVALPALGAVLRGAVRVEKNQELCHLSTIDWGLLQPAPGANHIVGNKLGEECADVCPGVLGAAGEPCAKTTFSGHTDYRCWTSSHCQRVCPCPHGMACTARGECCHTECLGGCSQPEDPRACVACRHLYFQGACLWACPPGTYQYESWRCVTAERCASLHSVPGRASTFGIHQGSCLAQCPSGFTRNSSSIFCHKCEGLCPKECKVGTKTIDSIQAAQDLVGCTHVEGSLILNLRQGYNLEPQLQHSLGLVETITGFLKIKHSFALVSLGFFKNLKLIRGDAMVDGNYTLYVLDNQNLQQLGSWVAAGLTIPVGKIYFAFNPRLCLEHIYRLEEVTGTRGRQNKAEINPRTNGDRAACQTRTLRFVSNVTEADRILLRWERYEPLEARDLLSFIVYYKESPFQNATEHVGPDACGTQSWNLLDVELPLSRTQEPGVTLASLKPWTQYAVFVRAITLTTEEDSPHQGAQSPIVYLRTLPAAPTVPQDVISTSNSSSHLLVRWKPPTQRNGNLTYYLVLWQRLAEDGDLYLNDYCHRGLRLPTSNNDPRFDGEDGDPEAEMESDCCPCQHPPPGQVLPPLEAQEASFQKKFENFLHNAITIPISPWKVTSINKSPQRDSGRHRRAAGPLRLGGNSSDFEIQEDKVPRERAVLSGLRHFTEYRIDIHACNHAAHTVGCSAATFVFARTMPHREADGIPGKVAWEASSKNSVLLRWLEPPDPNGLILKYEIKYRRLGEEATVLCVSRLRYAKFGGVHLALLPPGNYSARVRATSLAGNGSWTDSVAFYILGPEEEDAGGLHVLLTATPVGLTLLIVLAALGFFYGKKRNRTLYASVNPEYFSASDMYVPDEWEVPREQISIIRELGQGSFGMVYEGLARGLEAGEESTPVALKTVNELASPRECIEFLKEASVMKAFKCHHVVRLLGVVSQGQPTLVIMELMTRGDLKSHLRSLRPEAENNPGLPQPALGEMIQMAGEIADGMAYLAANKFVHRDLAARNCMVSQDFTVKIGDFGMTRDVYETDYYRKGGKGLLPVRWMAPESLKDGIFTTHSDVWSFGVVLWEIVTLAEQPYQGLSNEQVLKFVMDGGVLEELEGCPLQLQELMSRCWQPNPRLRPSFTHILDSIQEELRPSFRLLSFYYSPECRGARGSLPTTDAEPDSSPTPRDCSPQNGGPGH

STK32B (human) = STK32B (human) (UniProt Q9NY57)
CDK14 (human) = CDK14 (human) (UniProt O94921)
TGFBR1 (human) = TGFBR1 (human) (UniProt P36897)
EIF2AK2 (human) = EIF2AK2 (human) (UniProt P19525)
NUAK1 (human) = NUAK1 (human) (UniProt O60285)
PRKCH (human) = PRKCH (human) (UniProt P24723)
EPHB1 (human) = EPHB1 (human) (UniProt P54762)
Chain of EPHB1 (human) (P54762 whole entry, looked up): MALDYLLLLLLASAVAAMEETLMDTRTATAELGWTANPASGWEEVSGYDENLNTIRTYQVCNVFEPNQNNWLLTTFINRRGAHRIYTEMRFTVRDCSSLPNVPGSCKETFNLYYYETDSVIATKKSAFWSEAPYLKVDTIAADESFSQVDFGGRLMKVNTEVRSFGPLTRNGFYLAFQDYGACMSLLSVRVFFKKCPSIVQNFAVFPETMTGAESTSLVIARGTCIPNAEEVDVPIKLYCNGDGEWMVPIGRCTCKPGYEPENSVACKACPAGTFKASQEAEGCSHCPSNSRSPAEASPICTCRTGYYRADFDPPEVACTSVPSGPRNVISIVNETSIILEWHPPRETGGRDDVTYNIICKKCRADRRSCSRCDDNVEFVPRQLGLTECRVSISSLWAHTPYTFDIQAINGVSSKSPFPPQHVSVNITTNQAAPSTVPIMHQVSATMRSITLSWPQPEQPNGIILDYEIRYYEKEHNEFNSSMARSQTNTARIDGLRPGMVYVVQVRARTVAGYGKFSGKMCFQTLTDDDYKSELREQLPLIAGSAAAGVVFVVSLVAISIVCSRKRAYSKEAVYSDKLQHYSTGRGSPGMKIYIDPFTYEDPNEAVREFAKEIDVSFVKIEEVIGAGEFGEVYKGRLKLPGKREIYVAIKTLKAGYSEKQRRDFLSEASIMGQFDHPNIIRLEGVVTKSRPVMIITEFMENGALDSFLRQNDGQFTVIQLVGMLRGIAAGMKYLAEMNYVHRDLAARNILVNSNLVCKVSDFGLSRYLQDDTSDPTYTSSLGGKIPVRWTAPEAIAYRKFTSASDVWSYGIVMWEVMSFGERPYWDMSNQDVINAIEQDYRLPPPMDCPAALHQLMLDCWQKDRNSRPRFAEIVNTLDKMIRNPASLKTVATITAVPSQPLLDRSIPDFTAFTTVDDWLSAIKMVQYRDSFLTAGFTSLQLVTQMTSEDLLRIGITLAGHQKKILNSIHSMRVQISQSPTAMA

NEK9 (human) = NEK9 (human) (UniProt Q8TD19)

Chain of IKBKB (human) (O14920 whole entry, looked up): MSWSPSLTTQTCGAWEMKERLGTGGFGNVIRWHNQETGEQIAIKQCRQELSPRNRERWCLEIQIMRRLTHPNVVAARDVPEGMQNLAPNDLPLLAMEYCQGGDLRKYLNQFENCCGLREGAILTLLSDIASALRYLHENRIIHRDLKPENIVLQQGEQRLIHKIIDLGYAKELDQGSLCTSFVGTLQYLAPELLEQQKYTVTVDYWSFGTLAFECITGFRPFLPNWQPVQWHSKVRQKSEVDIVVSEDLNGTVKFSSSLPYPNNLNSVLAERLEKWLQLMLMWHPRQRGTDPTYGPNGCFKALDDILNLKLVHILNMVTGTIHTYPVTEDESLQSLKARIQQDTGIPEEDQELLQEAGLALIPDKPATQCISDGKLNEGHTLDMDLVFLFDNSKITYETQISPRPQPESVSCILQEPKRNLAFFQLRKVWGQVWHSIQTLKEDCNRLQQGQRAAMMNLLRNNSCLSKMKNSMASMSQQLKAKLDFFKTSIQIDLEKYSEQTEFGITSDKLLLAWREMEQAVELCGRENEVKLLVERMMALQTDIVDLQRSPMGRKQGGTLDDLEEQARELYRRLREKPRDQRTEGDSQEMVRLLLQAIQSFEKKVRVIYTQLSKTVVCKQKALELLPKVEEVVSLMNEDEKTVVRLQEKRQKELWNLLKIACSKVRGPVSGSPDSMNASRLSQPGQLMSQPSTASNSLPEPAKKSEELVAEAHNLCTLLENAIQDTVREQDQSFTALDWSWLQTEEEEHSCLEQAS
Chain of STK32C (human) (Q86UX6 whole entry, looked up): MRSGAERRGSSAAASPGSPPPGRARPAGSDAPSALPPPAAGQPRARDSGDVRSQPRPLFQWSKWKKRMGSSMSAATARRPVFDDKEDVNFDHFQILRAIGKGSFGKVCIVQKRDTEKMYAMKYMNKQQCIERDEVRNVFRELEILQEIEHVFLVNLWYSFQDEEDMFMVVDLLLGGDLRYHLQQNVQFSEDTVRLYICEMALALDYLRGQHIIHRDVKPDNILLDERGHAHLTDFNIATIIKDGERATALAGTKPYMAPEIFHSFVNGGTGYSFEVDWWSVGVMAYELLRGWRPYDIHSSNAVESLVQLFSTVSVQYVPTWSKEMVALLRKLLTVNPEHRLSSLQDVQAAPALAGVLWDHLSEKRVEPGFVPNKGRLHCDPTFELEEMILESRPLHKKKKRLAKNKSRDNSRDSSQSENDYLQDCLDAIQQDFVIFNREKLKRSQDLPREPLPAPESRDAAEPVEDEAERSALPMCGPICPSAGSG

kinase still bound, per cent of control (IKBKB (human)): 100%
kinase still bound, per cent of control (MARK3 (human)): 100%
kinase still bound, per cent of control (NUAK2 (human)): 71%
kinase still bound, per cent of control (MAPK9 (human)): 69%
kinase still bound, per cent of control (CSNK1A1L (human)): 100%
kinase still bound, per cent of control (STK32C (human)): 100%
kinase still bound, per cent of control [1]: 84%
kinase still bound, per cent of control (LIMK2 (human)): 100%
kinase still bound, per cent of control (IGF1R (human)): 100%
kinase still bound, per cent of control (MAP4K5 (human)): 98%
kinase still bound, per cent of control (CDC2L2 (human)): 100%
kinase still bound, per cent of control (MAP2K2 (human)): 95%
kinase still bound, per cent of control (CAMK4 (human)): 100%
kinase still bound, per cent of control (PTK2 (human)): 73%
kinase still bound, per cent of control (RPS6KA1 KD1 (human)): 96%
kinase still bound, per cent of control (MERTK (human)): 80%
kinase still bound, per cent of control (TEK (human)): 100%
kinase still bound, per cent of control (TSSK1B (human)): 64%
kinase still bound, per cent of control (CAMK1G (human)): 100%
kinase still bound, per cent of control (CDK9 (human)): 100%
kinase still bound, per cent of control (MUSK (human)): 100%
kinase still bound, per cent of control (TLK2 (human)): 100%
kinase still bound, per cent of control (RPS6KA4 KD1 (human)): 100%
kinase still bound, per cent of control (MAPK12 (human)): 81%
kinase still bound, per cent of control (CDC42BPB (human)): 100%
kinase still bound, per cent of control (SIK2 (human)): 82%
kinase still bound, per cent of control (MAPK6 (human)): 100%
kinase still bound, per cent of control (TEC (human)): 87%
kinase still bound, per cent of control (PIK3C2B (human)): 100%
kinase still bound, per cent of control (RAF1 (human)): 89%
kinase still bound, per cent of control [2]: 33%
kinase still bound, per cent of control (MARK2 (human)): 100%
kinase still bound, per cent of control (NEK5 (human)): 100%
kinase still bound, per cent of control (INSRR (human)): 41%
kinase still bound, per cent of control (STK32B (human)): 93%
kinase still bound, per cent of control (CDK14 (human)): 100%
kinase still bound, per cent of control (TGFBR1 (human)): 79%
kinase still bound, per cent of control (EIF2AK2 (human)): 59%
kinase still bound, per cent of control (NUAK1 (human)): 63%
kinase still bound, per cent of control (PRKCH (human)): 96%
kinase still bound, per cent of control (EPHB1 (human)): 96%
SMILES: COc1cc(N2CCN(C)CC2)ccc1Nc1ncc2c(n1)Nc1ccccc1NC2=O
kinase still bound, per cent of control (NEK9 (human)): 87%

kinase still bound, per cent of control (IKBKB (human)): 84%
kinase still bound, per cent of control (MARK3 (human)): 100%
kinase still bound, per cent of control (NUAK2 (human)): 37%
kinase still bound, per cent of control (MAPK9 (human)): 100%
kinase still bound, per cent of control (CSNK1A1L (human)): 100%
kinase still bound, per cent of control (STK32C (human)): 100%
kinase still bound, per cent of control [1]: 100%
kinase still bound, per cent of control (LIMK2 (human)): 82%
kinase still bound, per cent of control (IGF1R (human)): 100%
kinase still bound, per cent of control (MAP4K5 (human)): 52%
kinase still bound, per cent of control (CDC2L2 (human)): 95%
kinase still bound, per cent of control (MAP2K2 (human)): 15%
kinase still bound, per cent of control (CAMK4 (human)): 100%
kinase still bound, per cent of control (PTK2 (human)): 79%
kinase still bound, per cent of control (RPS6KA1 KD1 (human)): 71%
kinase still bound, per cent of control (MERTK (human)): 83%
kinase still bound, per cent of control (TEK (human)): 100%
kinase still bound, per cent of control (TSSK1B (human)): 2.9%
kinase still bound, per cent of control (CAMK1G (human)): 85%
kinase still bound, per cent of control (CDK9 (human)): 100%
kinase still bound, per cent of control (MUSK (human)): 97%
kinase still bound, per cent of control (TLK2 (human)): 99%
kinase still bound, per cent of control (RPS6KA4 KD1 (human)): 100%
kinase still bound, per cent of control (MAPK12 (human)): 60%
kinase still bound, per cent of control (CDC42BPB (human)): 100%
kinase still bound, per cent of control (SIK2 (human)): 76%
kinase still bound, per cent of control (MAPK6 (human)): 93%
kinase still bound, per cent of control (TEC (human)): 84%
kinase still bound, per cent of control (PIK3C2B (human)): 90%
kinase still bound, per cent of control (RAF1 (human)): 94%
kinase still bound, per cent of control [2]: 56%
kinase still bound, per cent of control (MARK2 (human)): 60%
kinase still bound, per cent of control (NEK5 (human)): 100%
kinase still bound, per cent of control (INSRR (human)): 86%
kinase still bound, per cent of control (STK32B (human)): 100%
kinase still bound, per cent of control (CDK14 (human)): 73%
kinase still bound, per cent of control (TGFBR1 (human)): 48%
kinase still bound, per cent of control (EIF2AK2 (human)): 38%
kinase still bound, per cent of control (NUAK1 (human)): 77%
kinase still bound, per cent of control (PRKCH (human)): 100%
kinase still bound, per cent of control (EPHB1 (human)): 95%
SMILES: O=C1NC(=O)/C(=C/c2c[nH]c(=O)c(-c3ccc(N4CCNCC4)nc3)c2)S1
kinase still bound, per cent of control (NEK9 (human)): 71%
